ChEMBL document CHEMBL4680171, “Oxadiazolylthiazoles as novel and selective antifungal agents” (Eur J Med Chem, 2020)
In brackets after ≈: the same amount, converted by molar mass.

Assays:
[1] = tested on: Staphylococcus aureus; test: Antibacterial activity against methicillin resistant Staphylococcus aureus subsp. aureus USA300 assessed as reduction in bacterial growth by CLSI based broth microdilution method; assay type: functional
[2] = tested on: Clostridioides difficile; test: Antibacterial activity against Clostridium difficile BAA1870 assessed as reduction in bacterial growth by CLSI based broth microdilution method; assay type: functional
[3] = tested on: Cryptococcus neoformans; test: Antifungal activity against Cryptococcus neoformans NR41300 assessed as reduction in fungal growth incubated for 48 hrs by CLSI based broth microdilution method; assay type: functional
[4] = tested on: Cryptococcus gattii species complex; test: Antifungal activity against Cryptococcus gattii NR43209 assessed as reduction in fungal growth incubated for 48 hrs by CLSI based broth microdilution method; assay type: functional, Cryptococcus bacillisporus
[5] = tested on: Lacticaseibacillus casei; test: Antibacterial activity against Lactobacillus casei HM-334 assessed as reduction in bacterial growth by CLSI based assay; assay type: organism-based
[6] = tested on: Lactobacillus crispatus; test: Antibacterial activity against Lactobacillus crispatus HM-370 assessed as reduction in bacterial growth by CLSI based assay
[7] = Cytotoxicity against human Caco-2 cells assessed as cell viability up to 64 ug/ml incubated for 24 hrs by MTS assay; assay type: cell-based; conditions: dose <=64 µg/ml, read-out: Activity
[8] = tested on: Candida albicans; test: Antibiofilm activity against Candida albicans NR29448 assessed as reduction in biofilm formation at 0.5XMIC incubated for 24 hrs by crystal violet staining based assay relative to control; assay type: functional
[9] = tested on: Candida albicans; test: Antibiofilm activity against 24 hrs preformed biofilm of Candida albicans NR29448 assessed as disruption of mature biofilm at 64 ug/ml incubated for 24 hrs by crystal violet staining based spectrophotometry relative to control; assay type: functional; conditions: dose 64 µg/ml
[10] = tested on: Candida albicans; test: Antifungal activity against Candida albicans SS5314 assessed as reduction in fungal growth incubated for 24 hrs by CLSI based broth microdilution method; assay type: functional
[11] = Selectivity index, ratio of CC50 for African green monkey Vero cells to MIC for antifungal activity against Candida glabrata ATCC 66032; assay type: toxicity; conditions: read-out: Selectivity Index
[12] = Selectivity index, ratio of CC50 for African green monkey Vero cells to MIC for antifungal activity against Candida krusei CAB 396420; assay type: toxicity; conditions: read-out: Selectivity Index
[13] = Selectivity index, ratio of CC50 for African green monkey Vero cells to MIC for antifungal activity against Candida krusei ATCC 34135; assay type: toxicity; conditions: read-out: Selectivity Index
[14] = Selectivity index, ratio of CC50 for African green monkey Vero cells to MIC for antifungal activity against Cryptococcus neoformans NR41298; assay type: toxicity; conditions: read-out: Selectivity Index
[15] = Selectivity index, ratio of maximum non-toxic concentration for human Caco-2 cells to MIC for antifungal activity against fluconazole-resistant Candida albicans NR29448; assay type: toxicity; conditions: read-out: Selectivity Index
[16] = Selectivity index, ratio of maximum non-toxic concentration for human Caco-2 cells to MIC for antifungal activity against Cryptococcus neoformans NR48770; assay type: toxicity; conditions: read-out: Selectivity Index

Cc1nc(-c2ccc(C(C)(C)C)cc2)sc1-c1nnc(N[C@@H]2CCCC[C@@H]2N)o1 (relative stereo)
MIC [1]: > 64 µg/mL | MIC [2]: 64 µg/mL (≈ 156 µM) | MIC [3]: 2 µg/mL (≈ 4.86 µM) | MIC [4]: 1 µg/mL (≈ 2.43 µM) | MIC [5]: > 128 µg/mL | MIC [6]: > 128 µg/mL | viability at 24 h [7]: 100% | inhibition (INH) [8]: 40% | Activity [9]: 16% | MIC [10]: 2 µg/mL (≈ 4.86 µM) | selectivity ratio [11]: ≤ 64 | selectivity ratio [12]: ≤ 64 | selectivity ratio [13]: ≤ 64 | selectivity ratio [14]: ≤ 64 | selectivity ratio [15]: ≤ 64 | selectivity ratio [16]: ≤ 64
